Reference: paper PMC5421785, “Citrullination only infrequently impacts peptide binding to HLA class II MHC” (PLoS ONE, 2017)
Like-named read-outs stand apart in the source and are kept apart here. Values belong to the compound of their own block, whether it stands above or below them. Square brackets hold non-standard residues; d marks the D form. Ends that are not written are not given here. Peptide text beside a SMILES is read from it. Cit = NC(=O)NCCC[C@H](N)C(=O)O

Experiments:
HLA-DRB1*01:01 = target: T1, HLA-DRB1*01:01 (Homo sapiens, UniProt P01903+P01911, A100R/D57E/F55L/F60I/F76Y/I96L/L162R/M171V/P40L/Q125E/R42F/V115G/Y59C); experiment: HLA class II peptide binding, inhibition of radiolabeled peptide binding to purified MHC
T1 construct: EBV transformed homozygous cell lines were used as sources of MHC molecules; endogenous in cells; host or cells: EBV transformed homozygous cell lines

HLA-DRB1*04:01 = target: T2, HLA-DRB1*04:01 (Homo sapiens, UniProt P01903+P01911, A100K/A169T/F76Y/I96L/K127E/L162R/M171V/N62H/P40V/Q125Y/R42H/S133A/S149N/S66Y/V115G/V209L/W38E); experiment: as above
T2 construct: EBV transformed homozygous cell lines were used as sources of MHC molecules; endogenous in cells; host or cells: EBV transformed homozygous cell lines

[1] = citrullinated 15-mer peptide (X = citrulline), purified HLA-DRB1*01:01, read-out: DRB1*01:01 binding capacity, Cit peptide (IC50 nM)
[2] = citrullinated 15-mer peptide (X = citrulline), purified HLA-DRB1*04:01, read-out: DRB1*04:01 binding capacity, Cit peptide (IC50 nM)
[3] = citrullinated 15-mer (X), purified MHC, inhibition of radiolabeled peptide binding, dash = IC50 >40,000 nM, read-out: DRB1*01:01 binding capacity, Cit peptide (IC50 nM)
[4] = citrullinated 15-mer (X), purified MHC, inhibition of radiolabeled peptide binding, dash = IC50 >40,000 nM, read-out: DRB1*04:01 binding capacity, Cit peptide (IC50 nM)
[5] = read-out: DRB1*01:01 binding capacity, WT peptide (IC50 nM)
[6] = read-out: DRB1*04:01 binding capacity, WT peptide (IC50 nM)
[7] = ratio of WT IC50 to Cit IC50, >1 = citrullination increases binding

IC50 (HLA-DRB1*01:01; [1]): 7.1 nM | IC50 (HLA-DRB1*04:01; [2]): 7920 nM
Compound: CC[C@H](C)[C@H](NC(=O)CNC(=O)[C@H](CCCNC(N)=O)NC(=O)[C@H](CCC(N)=O)NC(=O)CNC(=O)[C@H](C)NC(=O)[C@H](CC(C)C)NC(=O)CNC(=O)[C@H](CCC(N)=O)NC(=O)[C@@H]1CCCN1C(=O)CNC(=O)[C@@H]1CCCN1)C(=O)N[C@H](C(=O)NCC(=O)N[C@@H](CC(C)C)C(=O)O)C(C)C [PGPQGLAGQXGIVGL]

IC50 (HLA-DRB1*01:01; [3]): 10400 nM | IC50 (HLA-DRB1*04:01; [4]): > 40000 nM
Compound: C[C@H](NC(=O)[C@@H](NC(=O)CNC(=O)[C@@H]1CCCN1C(=O)CNC(=O)CN)[C@@H](C)O)C(=O)N[C@@H](CO)C(=O)N[C@@H](CCCNC(N)=O)C(=O)N1CCC[C@H]1C(=O)N[C@@H](CO)C(=O)N[C@@H](CO)C(=O)N[C@@H](CO)C(=O)N[C@@H](CCCNC(=N)N)C(=O)N[C@@H](CO)C(=O)N[C@@H](Cc1ccc(O)cc1)C(=O)O [GGPGTASXPSSSRSY] (H-GGPGTAS[Cit]PSSSRSY-OH)

IC50 (HLA-DRB1*01:01; [3]): 292 nM | IC50 (HLA-DRB1*04:01; [4]): 1110 nM
Compound: CC(C)C[C@H](NC(=O)[C@H](CC(=O)O)NC(=O)[C@H](C)NC(=O)[C@H](Cc1ccccc1)NC(=O)[C@H](CCCCN)NC(=O)[C@H](CO)NC(=O)[C@H](CCCCN)NC(=O)[C@@H](N)Cc1ccc(O)cc1)C(=O)N[C@@H](CO)C(=O)N[C@@H](CCC(=O)O)C(=O)N[C@@H](C)C(=O)N[C@@H](C)C(=O)N[C@@H](CC(N)=O)C(=O)N[C@@H](CCCNC(N)=O)C(=O)N[C@@H](CC(N)=O)C(=O)O [YKSKFADLSEAANXN] (H-YKSKFADLSEAAN[Cit]N-OH)

IC50 (HLA-DRB1*01:01; [3]): 956 nM | IC50 (HLA-DRB1*04:01; [4]): 8760 nM
Compound: CC(C)C[C@H](NC(=O)[C@H](C)NC(=O)[C@H](C)NC(=O)[C@@H](N)[C@@H](C)O)C(=O)N[C@@H](CCCNC(N)=O)C(=O)N[C@@H](CC(=O)O)C(=O)N[C@H](C(=O)N[C@@H](CCCNC(=N)N)C(=O)N[C@@H](CCC(N)=O)C(=O)N[C@@H](CCC(N)=O)C(=O)N[C@@H](Cc1ccc(O)cc1)C(=O)N[C@@H](CCC(=O)O)C(=O)N[C@@H](CO)C(=O)N[C@H](C(=O)N[C@@H](C)C(=O)O)C(C)C)C(C)C [TAALXDVRQQYESVA] (H-TAAL[Cit]DVRQQYESVA-OH)

IC50 (HLA-DRB1*01:01; [5]): 4450 nM | IC50 (HLA-DRB1*04:01; [6]): 1790 nM
Compound: FKNTRTNEKVELQEL [Vimentin 96 WT]

IC50 (HLA-DRB1*01:01; [1]): > 40000 nM | DRB1*01:01 binding capacity, WT/cit ratio (HLA-DRB1*01:01; [7]): 1.0 | IC50 (HLA-DRB1*04:01; [2]): > 40000 nM | DRB1*04:01 binding capacity, WT/cit ratio (HLA-DRB1*04:01; [7]): 1.0
Compound: CC(C)[C@H](NC(=O)CNC(=O)[C@H](C)NC(=O)[C@H](C)NC(=O)CNC(=O)[C@H](CC(=O)O)NC(=O)[C@H](CCCNC(N)=O)NC(=O)CNC(=O)[C@@H]1CCCN1C(=O)[C@@H]1CCCN1C(=O)CNC(=O)[C@H](CC(=O)O)NC(=O)[C@H](C)NC(=O)CN)C(=O)N[C@@H](CCCCN)C(=O)O [GADGPPGXDGAAGVK] (H-GADGPPG[Cit]DGAAGVK-OH; N-terminus and C-terminus assumed)

IC50 (HLA-DRB1*01:01; [1]): 309 nM | IC50 (HLA-DRB1*04:01; [2]): 4480 nM
Compound: CC[C@H](C)[C@H](N)C(=O)N[C@@H](CO)C(=O)N[C@@H](CC(C)C)C(=O)N1CCC[C@H]1C(=O)N[C@@H](CC(C)C)C(=O)N1CCC[C@H]1C(=O)N[C@@H](CC(N)=O)C(=O)N[C@@H](Cc1ccccc1)C(=O)N[C@@H](CO)C(=O)N[C@@H](CO)C(=O)N[C@@H](CC(C)C)C(=O)N[C@@H](CC(N)=O)C(=O)N[C@@H](CC(C)C)C(=O)N[C@@H](CCCNC(N)=O)C(=O)N[C@@H](CCC(=O)O)C(=O)O [ISLPLPNFSSLNLXE]

IC50 (HLA-DRB1*01:01; wild-type (unmodified Arg) 15-mer peptide, purified HLA-DRB1*01:01, read-out: DRB1*01:01 binding capacity, WT peptide (IC50 nM)): 363 nM | IC50 (HLA-DRB1*04:01; wild-type (unmodified Arg) 15-mer peptide, purified HLA-DRB1*04:01, read-out: DRB1*04:01 binding capacity, WT peptide (IC50 nM)): > 40000 nM
Compound: KAGEKGLPGAPGLRG [Collagen 616 WT]

IC50 (HLA-DRB1*01:01; [1]): 578 nM | IC50 (HLA-DRB1*04:01; [2]): > 40000 nM
Compound: CC(C)C[C@H](NC(=O)CNC(=O)[C@@H]1CCCN1C(=O)[C@H](C)NC(=O)CNC(=O)[C@@H]1CCCN1C(=O)[C@H](CC(C)C)NC(=O)CNC(=O)[C@H](CCCCN)NC(=O)[C@H](CCC(=O)O)NC(=O)CNC(=O)[C@H](C)NC(=O)[C@@H](N)CCCCN)C(=O)N[C@@H](CCCNC(N)=O)C(=O)NCC(=O)O [KAGEKGLPGAPGLXG] (H-KAGEKGLPGAPGL[Cit]G-OH)

IC50 (HLA-DRB1*01:01; [5]): > 40000 nM | IC50 (HLA-DRB1*04:01; [6]): > 40000 nM
Compound: AANRNNDALRQAKQE [Vimentin 301 WT]

IC50 (HLA-DRB1*01:01; citrullinated peptide as listed (X at Cit position), read-out: DRB1*01:01 binding capacity Cit peptide (IC50 nM)): 9.3 nM | IC50 (HLA-DRB1*01:01; value of the wild-type (non-citrullinated) counterpart of the listed peptide, read-out: DRB1*01:01 binding capacity WT peptide (IC50 nM)): 29 nM | IC50 (HLA-DRB1*04:01; citrullinated peptide as listed (X at Cit position), read-out: DRB1*04:01 binding capacity Cit peptide (IC50 nM)): 138 nM | IC50 (HLA-DRB1*04:01; value of the wild-type (non-citrullinated) counterpart of the listed peptide, read-out: DRB1*04:01 binding capacity WT peptide (IC50 nM)): 646 nM
Compound: CC[C@H](C)[C@H](NC(=O)[C@@H](NC(=O)[C@@H](NC(=O)[C@H](CCCCN)NC(=O)CN)[C@@H](C)O)C(C)C)C(=O)N[C@@H](CCC(=O)O)C(=O)N[C@@H](Cc1ccc(O)cc1)C(=O)N[C@@H](CCCNC(=N)N)C(=O)N[C@@H](CO)C(=O)N[C@@H](CCC(N)=O)C(=O)N[C@@H](CCCCN)C(=O)N[C@H](C(=O)N[C@@H](CO)C(=O)N[C@@H](CCCNC(N)=O)C(=O)N[C@@H](CC(C)C)C(=O)O)[C@@H](C)O [GKTVIEYRSQKTSXL] (H-GKTVIEYRSQKTS[Cit]L-OH)
